Test results: PubChem BioAssay (NCI)
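All cell lines were grown in 96-well plates and treated with compound for 48 hours. The concentration for full growth arrest is given as TGI.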

Legend:
Test in all cases: NCI anticancer screen, dose series, 48 h
[1] = tested on: IGROV1 ovarian
[2] = tested on: HS 578T breast
[3] = tested on: HL-60(TB) leukemia
[4] = tested on: MDA-MB-231 breast
[5] = tested on: HOP-92 NSCLC
[6] = tested on: M14 melanoma
[7] = tested on: NCI-H522 lung
[8] = tested on: SF-295 CNS
[9] = tested on: NCI-H23 lung
[10] = tested on: HCT-116 colon
[11] = tested on: DU-145 prostate
[12] = tested on: U251 CNS
[13] = tested on: MOLT-4 leukemia
[14] = tested on: SK-OV-3 ovarian
[15] = tested on: KM12 colon
[16] = tested on: UACC-257 melanoma
[17] = tested on: NCI-H226 lung
[18] = tested on: PC-3 prostate
[19] = tested on: ACHN renal
[20] = tested on: HCT-15 colon
[21] = tested on: MDA-N
[22] = tested on: COLO 205 colon
[23] = tested on: SR leukemia
[24] = tested on: SK-MEL-28 melanoma
[25] = tested on: HOP-62 NSCLC
[26] = tested on: A498 renal
[27] = tested on: SK-MEL-5 melanoma
[28] = tested on: MDA-MB-435
[29] = tested on: BT-549 breast
[30] = tested on: SF-268 CNS
[31] = tested on: T-47D breast
[32] = tested on: SNB-75 CNS
[33] = tested on: OVCAR-3 ovarian
[34] = tested on: SNB-19 CNS
[35] = tested on: CAKI-1 renal
[36] = tested on: SN12C renal
[37] = tested on: MCF7 breast
[38] = tested on: MALME-3M melanoma
[39] = tested on: TK-10 renal
[40] = tested on: SK-MEL-2 melanoma
[41] = tested on: CCRF-CEM leukemia
[42] = tested on: UO-31 renal
[43] = tested on: OVCAR-8 ovarian
[44] = tested on: A549 NSCLC
[45] = tested on: RPMI-8226 leukemia
[46] = tested on: HCC-2998 colon
[47] = tested on: 786-0 renal
[48] = tested on: OVCAR-5 ovarian
[49] = tested on: UACC-62 melanoma
[50] = tested on: NCI-H460 lung
[51] = tested on: OVCAR-4 ovarian
[52] = tested on: NCI/ADR-RES ovarian
[53] = tested on: K-562 leukemia
[54] = tested on: EKVX NSCLC
[55] = tested on: SW-620 colon
[56] = tested on: LOX IMVI melanoma
[57] = tested on: HT29 colon
[58] = tested on: RXF 393 renal
[59] = tested on: SF-539 CNS

CCOC(=O)CCc1cccc2c1oc1c(CCNC(=O)OCC3c4ccccc4-c4ccccc43)cccc12
TGI [1]: > 100 µM
TGI [2]: 16.5 µM
TGI [3]: > 100 µM
TGI [4]: > 100 µM
TGI [5]: 85.6 µM
TGI [6]: > 100 µM
TGI [7]: > 100 µM
TGI [8]: > 100 µM
TGI [9]: > 100 µM
TGI [10]: > 100 µM
TGI [11]: > 100 µM
TGI [12]: > 100 µM
TGI [13]: > 100 µM
TGI [14]: > 100 µM
TGI [15]: > 100 µM
TGI [16]: > 100 µM
TGI [17]: > 100 µM
TGI [18]: > 100 µM
TGI [19]: > 100 µM
TGI [20]: > 100 µM
TGI [21]: > 100 µM
TGI [22]: > 100 µM
TGI [23]: > 100 µM
TGI [24]: > 100 µM
TGI [25]: 52.3 µM
TGI [26]: > 100 µM
TGI [27]: > 100 µM
TGI [28]: > 100 µM
TGI [29]: 68.4 µM
TGI [30]: 70.3 µM
TGI [31]: 81.1 µM
TGI [32]: 42.1 µM
TGI [33]: > 100 µM
TGI [34]: 70.6 µM
TGI [35]: 45.4 µM
TGI [36]: > 100 µM
TGI [37]: > 100 µM
TGI [38]: 58.4 µM
TGI [39]: > 100 µM
TGI [40]: > 100 µM
TGI [41]: > 100 µM
TGI [42]: > 100 µM
TGI [43]: > 100 µM
TGI [44]: > 100 µM
TGI [45]: > 100 µM
TGI [46]: > 100 µM
TGI [47]: > 100 µM
TGI [48]: > 100 µM
TGI [49]: 63.6 µM
TGI [50]: > 100 µM
TGI [51]: > 100 µM
TGI [52]: > 100 µM
TGI [53]: > 100 µM
TGI [54]: > 100 µM
TGI [55]: > 100 µM
TGI [56]: > 100 µM

Nc1nccc2c1ncn2[C@H]1C[C@H](O)[C@@H](CO)O1
TGI [1]: > 100 µM
TGI [2]: > 100 µM
TGI [4]: > 100 µM
TGI [5]: > 100 µM
TGI [6]: > 100 µM
TGI [8]: > 100 µM
TGI [9]: > 100 µM
TGI [10]: > 100 µM
TGI [11]: > 100 µM
TGI [12]: > 100 µM
TGI [13]: > 100 µM
TGI [14]: > 100 µM
TGI [15]: > 100 µM
TGI [16]: > 100 µM
TGI [17]: > 100 µM
TGI [18]: > 100 µM
TGI [20]: > 100 µM
TGI [21]: > 100 µM
TGI [22]: > 100 µM
TGI [23]: > 100 µM
TGI [24]: > 100 µM
TGI [25]: > 100 µM
TGI [26]: > 100 µM
TGI [27]: > 100 µM
TGI [28]: > 100 µM
TGI [29]: > 100 µM
TGI [31]: > 100 µM
TGI [32]: > 100 µM
TGI [33]: > 100 µM
TGI [34]: > 100 µM
TGI [35]: > 100 µM
TGI [36]: > 100 µM
TGI [37]: > 100 µM
TGI [38]: > 100 µM
TGI [39]: > 100 µM
TGI [40]: > 100 µM
TGI [41]: > 100 µM
TGI [42]: > 100 µM
TGI [43]: > 100 µM
TGI [45]: > 100 µM
TGI [46]: > 100 µM
TGI [57]: > 100 µM
TGI [48]: > 100 µM
TGI [49]: > 100 µM
TGI [50]: > 100 µM
TGI [51]: > 100 µM
TGI [58]: > 100 µM
TGI [52]: > 100 µM
TGI [53]: > 100 µM
TGI [55]: > 100 µM
TGI [56]: > 100 µM

COc1cc(C=C(c2ccc(N(C)C)cc2)c2ccc(N(C)C)cc2)c2ccccc2c1OC
TGI [1]: > 100 µM
TGI [2]: > 100 µM
TGI [3]: > 100 µM
TGI [4]: > 100 µM
TGI [5]: > 100 µM
TGI [6]: > 100 µM
TGI [7]: > 100 µM
TGI [8]: > 100 µM
TGI [9]: > 100 µM
TGI [10]: > 100 µM
TGI [11]: > 100 µM
TGI [12]: > 100 µM
TGI [13]: > 100 µM
TGI [14]: > 100 µM
TGI [15]: > 100 µM
TGI [16]: > 100 µM
TGI [17]: > 100 µM
TGI [18]: > 100 µM
TGI [19]: > 100 µM
TGI [20]: > 100 µM
TGI [21]: 40.7 µM
TGI [22]: > 100 µM
TGI [23]: > 100 µM
TGI [24]: > 100 µM
TGI [25]: > 100 µM
TGI [27]: > 100 µM
TGI [28]: > 100 µM
TGI [29]: > 100 µM
TGI [30]: > 100 µM
TGI [31]: > 100 µM
TGI [32]: > 100 µM
TGI [33]: 74 µM
TGI [34]: > 100 µM
TGI [35]: > 100 µM
TGI [36]: > 100 µM
TGI [37]: > 100 µM
TGI [38]: > 100 µM
TGI [39]: > 100 µM
TGI [40]: > 100 µM
TGI [41]: > 100 µM
TGI [42]: > 100 µM
TGI [43]: > 100 µM
TGI [44]: > 100 µM
TGI [45]: > 100 µM
TGI [46]: > 100 µM
TGI [47]: > 100 µM
TGI [57]: > 100 µM
TGI [48]: > 100 µM
TGI [49]: > 100 µM
TGI [50]: > 100 µM
TGI [51]: > 100 µM
TGI [58]: > 100 µM
TGI [52]: > 100 µM
TGI [53]: > 100 µM
TGI [54]: > 100 µM
TGI [56]: > 100 µM

O=C1C=CC(O)(C#CCO)C=C1
TGI [1]: 25.6 µM
TGI [2]: > 76.5 µM
TGI [3]: 15.8 µM
TGI [4]: 33.7 µM
TGI [5]: 5.8 µM
TGI [6]: 44 µM
TGI [7]: 4.16 µM
TGI [8]: > 100 µM
TGI [9]: 34.5 µM
TGI [10]: > 53.9 µM
TGI [11]: 31.6 µM
TGI [12]: 23.8 µM
TGI [13]: > 100 µM
TGI [14]: > 100 µM
TGI [15]: 32.6 µM
TGI [16]: 27.7 µM
TGI [17]: 28.1 µM
TGI [18]: 31.8 µM
TGI [19]: 26.6 µM
TGI [20]: 10.1 µM
TGI [21]: 23 µM
TGI [22]: > 50.2 µM
TGI [23]: > 100 µM
TGI [24]: 25.5 µM
TGI [25]: 71.7 µM
TGI [26]: 46 µM
TGI [27]: > 100 µM
TGI [28]: 26.9 µM
TGI [29]: 26.7 µM
TGI [30]: 34.1 µM
TGI [31]: 41.6 µM
TGI [32]: 37.4 µM
TGI [33]: 31 µM
TGI [34]: > 56.8 µM
TGI [35]: 10.8 µM
TGI [36]: 30.6 µM
TGI [37]: 18.5 µM
TGI [59]: 30.8 µM
TGI [39]: 25.8 µM
TGI [40]: 33.2 µM
TGI [41]: 62.2 µM
TGI [42]: 32.3 µM
TGI [43]: 39.7 µM
TGI [44]: > 60.2 µM
TGI [45]: 22 µM
TGI [46]: 31.3 µM
TGI [47]: > 42 µM
TGI [57]: 29.7 µM
TGI [48]: 26.9 µM
TGI [49]: 29.3 µM
TGI [50]: 48.8 µM
TGI [51]: 25.9 µM
TGI [58]: 10.8 µM
TGI [52]: 30.3 µM
TGI [53]: > 100 µM
TGI [54]: 40.3 µM
TGI [55]: 15.3 µM
TGI [56]: 23.3 µM

CC(C)(C)OC(=O)C1CCC/C1=N/Nc1ccc([N+](=O)[O-])cc1[N+](=O)[O-] (configuration not stated)
TGI [1]: > 100 µM
TGI [2]: > 100 µM
TGI [3]: > 100 µM
TGI [4]: > 100 µM
TGI [5]: > 100 µM
TGI [6]: > 100 µM
TGI [7]: > 100 µM
TGI [8]: 88.9 µM
TGI [9]: 63.5 µM
TGI [10]: 78.5 µM
TGI [11]: > 100 µM
TGI [12]: 56.1 µM
TGI [13]: > 100 µM
TGI [14]: > 100 µM
TGI [15]: > 100 µM
TGI [17]: > 100 µM
TGI [18]: > 100 µM
TGI [19]: > 100 µM
TGI [20]: > 100 µM
TGI [21]: > 100 µM
TGI [22]: > 100 µM
TGI [23]: > 100 µM
TGI [24]: > 100 µM
TGI [25]: > 100 µM
TGI [26]: 65.4 µM
TGI [27]: 29.3 µM
TGI [28]: 53.2 µM
TGI [29]: 93.2 µM
TGI [30]: > 100 µM
TGI [31]: 88.1 µM
TGI [32]: 73.9 µM
TGI [33]: > 100 µM
TGI [34]: > 100 µM
TGI [35]: > 100 µM
TGI [36]: > 100 µM
TGI [37]: > 100 µM
TGI [38]: > 100 µM
TGI [39]: > 100 µM
TGI [41]: > 100 µM
TGI [42]: > 100 µM
TGI [43]: > 100 µM
TGI [44]: > 100 µM
TGI [45]: > 100 µM
TGI [46]: > 100 µM
TGI [47]: > 100 µM
TGI [57]: > 100 µM
TGI [48]: > 100 µM
TGI [49]: > 100 µM
TGI [50]: > 100 µM
TGI [51]: > 100 µM
TGI [58]: > 100 µM
TGI [52]: > 100 µM
TGI [53]: > 100 µM
TGI [54]: 89.9 µM
TGI [55]: > 100 µM
TGI [56]: > 100 µM
